# Key:
# Candida albicans = assay: Antimycotic in-vitro activity, serial dilution test (MIC); format: cell-based; details: meat extract-glucose broth, 28 °C to 37 °C, 24 to 96 h incubation, inoculum 5 x 10³ to 10⁴ germs/ml; for MIC: Candida albicans, read-out: MHK-Werte Candida albicans
# Method: (§1) Die in-vitro-Prüfungen wurden im Reihenverdünnungstest mit Keiminokula von durchschnittlich 5 x 10³ bis 10⁴ Keimen/ml Substrat durchgeführt. Als Nährmedium dienten • a) für Dermatophyten und Schimmelpilze: Sabouraud's milieu d'epreuve • b) für Hefen: Fleischextrakt-Traubenzucker-Bouillon.
# (§2) Die Bebrütungstemperatur betrug 28 °C bis 37 °C, die Bebrütungsdauer lag bei 24 bis 96 Stunden bei Hefen und 96 Stunden bei Dermatophyten und Schimmelpilzen.
# Trichophyton mentagr. = assay: as above; format: cell-based; details: Sabouraud's milieu d'epreuve, 28 °C to 37 °C, 96 h incubation, inoculum 5 x 10³ to 10⁴ germs/ml; for MIC: Trichophyton, read-out: MHK-Werte Trichophyton mentagr.
# Method: as §1, §2
# Aspergillus fumigatus = assay: as above; format: cell-based; details: Sabouraud's milieu d'epreuve, 28 °C to 37 °C, 96 h incubation, inoculum 5 x 10³ to 10⁴ germs/ml; for MIC: Aspergillus fumigatus, read-out: MHK-Werte Aspergillus fumigatus
# Method: as §1, §2
# Torulopsis glabrata = assay: as above; format: cell-based; details: meat extract-glucose broth, 28 °C to 37 °C, 24 to 96 h incubation, inoculum 5 x 10³ to 10⁴ germs/ml; for MIC: Nakaseomyces glabratus, read-out: MHK-Werte Torulopsis glabrata
# Method: as §1, §2
# Microsporum canis = assay: as above; format: cell-based; details: Sabouraud's milieu d'epreuve, 28 °C to 37 °C, 96 h incubation, inoculum 5 x 10³ to 10⁴ germs/ml; for MIC: Microsporum canis, 96 h, read-out: MHK-Werte Microsporum canis
# Method: as §1, §2
# [1] = tested on: Dermatophyten, Schimmelpilze, Hefen; assay: Antimycotic in-vitro activity, serial dilution test, overall spectrum; format: cell-based; details: statement in words on the in-vitro serial dilution test
# Method: as §1, §2
# Candida-Zellen = assay: Antimycotic in-vivo activity (oral) in mouse candidosis; parameters: species or system Mäuse vom Typ SPF-CF₁; details: for Antimykotische in-vivo-Wirksamkeit (oral) bei Mäusecandidose: mice infected i.v. with 1 - 2 x 10⁶ Candida cells, 10 - 100 mg/kg oral 1 h before and 7 h after infection, survivors on day 6 p.i.; for antimykotische Wirkung: statement in words, mouse candidosis, oral 10 - 100 mg/kg
# Method: Mäuse vom Typ SPF-CF₁ wurden intravenös mit 1 - 2 x 10⁶ logarithmisch wachsenden Candida-Zellen, die in physiologischer Kochsalzlösung suspendiert werden, infiziert. Eine Stunde vor und sieben Stunden nach der Infektion werden die Tiere mit jeweils 10 - 100 mg/kg Körpergewicht der Präparate oral behandelt.
# Unbehandelte Tiere starben 3 bis 6 Tage post infektionem. Die Überlebensrate am 6.Tag post infektionem betrug bei unbehandelten Kontrolltieren etwa 5 %.
Compound,MIC (Candida albicans),MIC (Trichophyton mentagr.),MIC (Aspergillus fumigatus),MIC (Torulopsis glabrata),MIC (Microsporum canis),antimykotisches Wirkungsspektrum [1],Antimykotische in-vivo-Wirksamkeit (oral) bei Mäusecandidose (Candida-Zellen),antimykotische Wirkung (Candida-Zellen),MHK-Werte Candida albicans (Candida albicans),MHK-Werte Trichophyton mentagr. (Trichophyton mentagr.),MHK-Werte Aspergillus fumigatus (Aspergillus fumigatus),MHK-Werte Torulopsis glabrata (Torulopsis glabrata),MHK-Werte Microsporum canis (Microsporum canis)
CC(C)(n1cccn1)C(O)(CCc1ccc(Cl)cc1Cl)Cn1cncn1 (centres unmarked) [Beispiel 23],8 µg/mL,2 µg/mL,8 µg/mL,2 µg/mL,,,,,,,,,
CC(C)(n1cncn1)C(O)(CSc1ccc(Cl)cc1)Cn1cncn1 (centres unmarked) [Beispiel 9],< 1 µg/mL,2 µg/mL,64 µg/mL,32 µg/mL,,gutes antimykotisches Wirkungsspektrum,,,,,,,
"CC(C)(Cn1cncn1)C(O)(CCc1ccc2ccccc2c1)Cn1cncn1 (centres unmarked) [Beispiel 2, 4,4-Dimethyl-1-(2-naphthyl)-5-(1,2,4-triazol-1-yl)-3-(1,2,4-triazol-1-yl-methyl)-3-pentanol]",32 µg/mL,4 µg/mL,> 64 µg/mL,> 64 µg/mL,,gutes antimykotisches Wirkungsspektrum,,,,,,,
CC(C)(n1cncn1)C(O)(C=Cc1ccc(Cl)cc1)Cn1cncn1 (centres unmarked) [Beispiel 8],,,,,,,++++ (gute Wirkung = 80 % Überlebende am 6.Tag.p.i.),gute antimykotische Wirkung,,,,,
"CC(C)(n1cncn1)C(O)(Cn1cncn1)c1ccc(Cl)cc1 (centres unmarked) [(B), reference compound]",> 64 µg/mL,8 µg/mL,> 64 µg/mL,> 64 µg/mL,> 64 µg/mL,,,,,,,,
CC(C)(n1cncn1)C(O)(COc1ccc(Cl)cc1Cl)Cn1cncn1 (centres unmarked) [Beispiel 11],8 µg/mL,2 µg/mL,> 64 µg/mL,> 64 µg/mL,,gutes antimykotisches Wirkungsspektrum,,,,,,,
"OC(Cn1cncn1)(Cn1cncn1)c1ccccc1 [(A), reference compound]",64 µg/mL,64 µg/mL,> 64 µg/mL,> 64 µg/mL,,,,,,,,,
CC(C)(n1cncn1)C(O)(CCc1ccc(Cl)cc1)Cn1cncn1 (centres unmarked) [Beispiel 29],< 1 µg/mL,< 1 µg/mL,16 µg/mL,32 µg/mL,4 µg/mL,,,,,,,,
CC(C)(n1cccn1)C(O)(/C=C/c1ccc(Cl)cc1)Cn1cncn1 (centres unmarked) [Beispiel 7],< 1 µg/mL,< 1 µg/mL,4 µg/mL,16 µg/mL,4 µg/mL,gutes antimykotisches Wirkungsspektrum,,,,,,,
Cc1cc(C)n(C(C)(C)C(O)(CCc2ccc(Cl)cc2)Cn2cncn2)n1 (centres unmarked) [Beispiel 21],8 µg/mL,< 1 µg/mL,2 µg/mL,16 µg/mL,< 1 µg/mL,,,,,,,,
Cc1cc(Cl)ccc1OCC(O)(Cn1cncn1)C(C)(C)n1cncn1 (centres unmarked) [Beispiel 12],16 µg/mL,4 µg/mL,> 64 µg/mL,> 64 µg/mL,,gutes antimykotisches Wirkungsspektrum,,,,,,,
Cc1ccc(OCC(O)(Cn2cncn2)C(C)(C)n2cncn2)c(Cl)c1 (centres unmarked) [Beispiel 13],32 µg/mL,2 µg/mL,> 64 µg/mL,> 64 µg/mL,,gutes antimykotisches Wirkungsspektrum,,,,,,,
"CC(C)(n1cccn1)C(O)(CCc1ccc(Cl)cc1)Cn1cncn1 (centres unmarked) [Beispiel 1, 5-(4-Chlorphenyl)-2-methyl-2-(pyrazol-1-yl)-3-(1,2,4-triazol-methyl)-pentan-3-ol]",,,,,,gutes antimykotisches Wirkungsspektrum,,,2 µg/ml Nährmedium,<1 µg/ml Nährmedium,2 µg/ml Nährmedium,2 µg/ml Nährmedium,2 µg/ml Nährmedium
CC(C)(Cn1cncn1)C(O)(CCc1ccc(-c2ccccc2)cc1)Cn1cncn1 (centres unmarked) [Beispiel 5],8 µg/mL,2 µg/mL,8 µg/mL,32 µg/mL,,gutes antimykotisches Wirkungsspektrum,+++ (Wirkung = 60 % Überlebende am 6.Tag.p.i.),gute antimykotische Wirkung,,,,,
CC(C)(n1cccn1)C(O)(CCc1ccc(Cl)cc1)Cn1cncn1 (centres unmarked) [Beispiel 18],,,,,,,,,8 µg/ml Nährmedium,<1 µg/ml Nährmedium,2 µg/ml Nährmedium,2 µg/ml Nährmedium,4 µg/ml Nährmedium
Cc1cc(C)n(C(C)(C)C(O)(CCc2ccc(F)cc2)Cn2cncn2)n1 (centres unmarked) [Beispiel 25],16 µg/mL,2 µg/mL,4 µg/mL,> 64 µg/mL,,,,,,,,,
CC(C)(n1cncn1)C(O)(COc1ccc(Cl)cc1)Cn1cncn1 (centres unmarked) [Beispiel 10],2 µg/mL,8 µg/mL,> 64 µg/mL,> 64 µg/mL,,gutes antimykotisches Wirkungsspektrum,+++++ (sehr gute Wirkung = 90 % Überlebende am 6.Tag.p.i.),gute antimykotische Wirkung,,,,,

# Now from value to compound, other results behind:
MIC (Candida albicans),MIC (Trichophyton mentagr.),MIC (Aspergillus fumigatus),MIC (Torulopsis glabrata),MIC (Microsporum canis),Compound,antimykotisches Wirkungsspektrum [1],Antimykotische in-vivo-Wirksamkeit (oral) bei Mäusecandidose (Candida-Zellen),antimykotische Wirkung (Candida-Zellen),MHK-Werte Candida albicans (Candida albicans),MHK-Werte Trichophyton mentagr. (Trichophyton mentagr.),MHK-Werte Aspergillus fumigatus (Aspergillus fumigatus),MHK-Werte Torulopsis glabrata (Torulopsis glabrata),MHK-Werte Microsporum canis (Microsporum canis)
32 µg/mL,< 1 µg/mL,16 µg/mL,16 µg/mL,8 µg/mL,CC(C)(n1cccn1)C(O)(COc1ccc(Cl)cc1)Cn1cncn1 (centres unmarked) [Beispiel 28],,,,,,,,
2 µg/mL,2 µg/mL,16 µg/mL,8 µg/mL,,CC(C)(n1cccn1)C(O)(CCc1ccc(F)cc1F)Cn1cncn1 (centres unmarked) [Beispiel 22],,,,,,,,
8 µg/mL,4 µg/mL,32 µg/mL,16 µg/mL,,CC(C)(n1cccn1)C(O)(CCc1ccc(F)cc1Cl)Cn1cncn1 (centres unmarked) [Beispiel 27],,,,,,,,
4 µg/mL,< 1 µg/mL,< 1 µg/mL,4 µg/mL,2 µg/mL,CC(C)(n1cccn1)C(O)(CCc1ccc(OC(F)(F)F)cc1)Cn1cncn1 (centres unmarked) [Beispiel 20],,,,,,,,
16 µg/mL,2 µg/mL,16 µg/mL,8 µg/mL,,CC(C)(n1cccn1)C(O)(CCc1ccccc1F)Cn1cncn1 (centres unmarked) [Beispiel 19],,,,,,,,
< 1 µg/mL,< 1 µg/mL,8 µg/mL,4 µg/mL,4 µg/mL,CC(C)(n1cccn1)C(O)(CCc1ccc(F)cc1)Cn1cncn1 (centres unmarked) [Beispiel 24],,,,,,,,
,< 1 µg/mL,2 µg/mL,,2 µg/mL,CC(C)(n1cccn1)C(O)(CCc1ccc(Cl)cc1)Cn1cncn1 (centres unmarked) [Beispiel 17],,,,16 µg/ml Nährmedium,,,32 µg/ml Nährmedium,
8 µg/mL,< 1 µg/mL,2 µg/mL,32 µg/mL,2 µg/mL,CC(C)(n1cccn1)C(O)(CCc1ccc(Cl)cc1F)Cn1cncn1 (centres unmarked) [Beispiel 26],,,,,,,,

# Source: patent publication EP0308782A2, “Antimycotic preparations” (BAYER AG, priority 1987, dated 1989)
